# Key:
# Mus musculus [1] = experiment: Anticonvulsant activity in Swiss albino mouse assessed as protection against maximal electroshock-induced seizures at 30 mg/kg, ip administered 6 hrs prior to 50 mA current induction relative to control; assay type: functional
# Mus musculus [2] = experiment: Anticonvulsant activity in Swiss albino mouse assessed as protection against maximal electroshock-induced seizures at 100 mg/kg, ip administered 3 hrs prior to 50 mA current induction relative to control
# Mus musculus [3] = experiment: Anticonvulsant activity in Swiss albino mouse assessed as protection against maximal electroshock-induced seizures at 30 mg/kg, ip administered 3 hrs prior to 50 mA current induction relative to control; assay type: functional
# Mus musculus [4] = experiment: Anticonvulsant activity in Swiss albino mouse assessed as protection against maximal electroshock-induced seizures at 30 mg/kg, ip administered 1 hr prior to 50 mA current induction relative to control; assay type: functional
# Rattus norvegicus [5] = experiment: Sub-acute toxicity in Wistar rat assessed as mortality at 100 mg/kg, po administered daily for 14 days; assay type: organism-based; details: in vivo, 336 h
# Carbonic anhydrase 7 = Carbonic anhydrase 7 (Homo sapiens, UniProt P43166); experiment: Inhibition of human recombinant carbonic anhydrase 7 assessed as CO2 hydration preincubated for 15 mins prior to testing measured for 10 to 100 secs by phenol red dye-based stopped-flow assay
# Sequence of Carbonic anhydrase 7 (P43166 whole entry): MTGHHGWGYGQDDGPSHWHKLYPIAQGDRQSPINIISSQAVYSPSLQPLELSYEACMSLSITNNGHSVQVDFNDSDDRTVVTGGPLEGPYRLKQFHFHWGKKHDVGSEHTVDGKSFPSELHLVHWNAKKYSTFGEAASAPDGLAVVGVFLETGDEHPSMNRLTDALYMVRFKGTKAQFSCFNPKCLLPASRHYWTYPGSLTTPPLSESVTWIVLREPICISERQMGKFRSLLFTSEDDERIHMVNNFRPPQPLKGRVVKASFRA
# Rattus norvegicus [6] = experiment: Sub-acute toxicity in Wistar rat assessed as K+ level at 100 mg/kg, po administered daily for 14 days (reference value: 4.79 +/- 0.45 mEq/L); assay type: organism-based; details: in vivo, 336 h
# Mus musculus [7] = experiment: Anticonvulsant activity in Swiss albino mouse assessed as protection against maximal electroshock-induced seizures at 100 mg/kg, ip administered 0.5 hrs prior to 50 mA current induction relative to control; assay type: functional
# Carbonic anhydrase 9 = Carbonic anhydrase 9 (Homo sapiens, UniProt Q16790); experiment: Inhibition of human recombinant carbonic anhydrase 9 assessed as CO2 hydration preincubated for 15 mins prior to testing measured for 10 to 100 secs by phenol red dye-based stopped-flow assay
# Rattus norvegicus [8] = experiment: Sub-acute toxicity in Wistar rat assessed as RBC level at 100 mg/kg, po administered daily for 14 days (reference value: 7.9 +/- 0.56 million/mm3); assay type: organism-based; details: in vivo, 336 h
# Rattus norvegicus [9] = experiment: Anticonvulsant activity in Wistar rat assessed as protection against maximal electroshock-induced seizures at 30 mg/kg, po administered 2 hrs prior to 150 mA current induction relative to control; assay type: functional
# Rattus norvegicus [10] = experiment: Sub-acute toxicity in Wistar rat assessed as SGPT level at 100 mg/kg, po administered daily for 14 days (reference value: 58.8 +/- 18.8 U/L); assay type: organism-based; details: in vivo, 336 h
# Mus musculus [11] = experiment: Anticonvulsant activity in Swiss albino mouse assessed as protection against subcutaneous PTZ-induced seizures at 30 mg/kg, ip administered 3 hrs prior to PTZ-induction relative to control; assay type: functional
# Rattus norvegicus [12] = experiment: Sub-acute toxicity in Wistar rat assessed as phosphorus level at 100 mg/kg, po administered daily for 14 days (reference value: 6.71 +/- 1 mg/dl); assay type: organism-based; details: in vivo, 336 h
# Mus musculus [13] = experiment: Anticonvulsant activity in Swiss albino mouse assessed as protection against subcutaneous PTZ-induced seizures at 100 mg/kg, ip administered 0.5 hrs prior to PTZ-induction relative to control; assay type: functional
# Rattus norvegicus [14] = experiment: Sub-acute toxicity in Wistar rat assessed as change in behavior at 100 mg/kg, po administered daily for 14 days; assay type: organism-based; details: in vivo, 336 h
# Rattus norvegicus [15] = experiment: Anticonvulsant activity in Wistar rat assessed as protection against maximal electroshock-induced seizures at 30 mg/kg, po administered 4 hrs prior to 150 mA current induction relative to control; assay type: functional
# Mus musculus [16] = experiment: Anticonvulsant activity in Swiss albino mouse assessed as protection against maximal electroshock-induced seizures at 30 mg/kg, ip administered 2 hrs prior to 50 mA current induction relative to control; assay type: functional
# Mus musculus [17] = experiment: Anticonvulsant activity in Swiss albino mouse assessed as protection against maximal electroshock-induced seizures at 100 mg/kg, ip administered 0.5 hrs prior to 50 mA current induction relative to control
# Homo sapiens = species on record: Homo sapiens; experiment: Selectivity ratio of Ki for human recombinant carbonic anhydrase 9 to Ki for human recombinant carbonic anhydrase 7
# Rattus norvegicus [18] = experiment: Sub-acute toxicity in Wistar rat assessed as alkaline phosphatase level at 100 mg/kg, po administered daily for 14 days (reference value: 113.2 +/- 15.1 U/L); assay type: organism-based; details: in vivo, 336 h
# Rattus norvegicus [19] = experiment: Anticonvulsant activity in Wistar rat assessed as protection against maximal electroshock-induced seizures at 30 mg/kg, po administered 0.5 hrs prior to 150 mA current induction relative to control; assay type: functional
# Rattus norvegicus [20] = experiment: Sub-acute toxicity in Wistar rat assessed as total bilirubin level at 100 mg/kg, po administered daily for 14 days (reference value: 0.37 +/- 0.11 mg/dl); assay type: organism-based; details: in vivo, 336 h
# Rattus norvegicus [21] = experiment: Sub-acute toxicity in Wistar rat assessed as effect on water intake at 100 mg/kg, po administered daily for 14 days; assay type: organism-based; details: in vivo, 336 h
# Rattus norvegicus [22] = experiment: Sub-acute toxicity in Wistar rat assessed as eosinophils level at 100 mg/kg, po administered daily for 14 days (reference value: 2 +/- 1.4%); assay type: organism-based; details: in vivo, 336 h
# Rattus norvegicus [23] = experiment: Sub-acute toxicity in Wistar rat assessed as hemoglobin level at 100 mg/kg, po administered daily for 14 days (reference value: 13.1 +/- 0.9 g/dl); details: in vivo, 336 h
# Rattus norvegicus [24] = experiment: Sub-acute toxicity in Wistar rat assessed as SGOT level at 100 mg/kg, po administered daily for 14 days (reference value: 69.9 +/- 7.7 U/L); assay type: organism-based; details: in vivo, 336 h
# Rattus norvegicus [25] = experiment: Sub-acute toxicity in Wistar rat assessed as neutrophils level at 100 mg/kg, po administered daily for 14 days (reference value: 23.4 +/- 2.9%); assay type: organism-based; details: in vivo, 336 h
# Rattus norvegicus [26] = experiment: Sub-acute toxicity in Wistar rat assessed as lymphocytes level at 100 mg/kg, po administered daily for 14 days (reference value: 72.3 +/- 6.7%); assay type: organism-based; details: in vivo, 336 h
# Mus musculus [27] = experiment: Anticonvulsant activity in Swiss albino mouse assessed as protection against maximal electroshock-induced seizures at 30 mg/kg, ip administered 0.5 hrs prior to 50 mA current induction relative to control; assay type: functional
# Rattus norvegicus [28] = experiment: Sub-acute toxicity in Wistar rat assessed as platelet level at 100 mg/kg, po administered daily for 14 days (reference value: 760.8 +/- 179.9 10^3/mm3); assay type: organism-based; details: in vivo, 336 h
# Mus musculus [29] = experiment: Anticonvulsant activity in Swiss albino mouse assessed as protection against subcutaneous PTZ-induced seizures at 30 mg/kg, ip administered 0.5 hrs prior to PTZ-induction relative to control; assay type: functional
# Rattus norvegicus [30] = experiment: Sub-acute toxicity in Wistar rat assessed as basophils level at 100 mg/kg, po administered daily for 14 days (reference value: 0.16 +/- 0.4%); assay type: organism-based; details: in vivo, 336 h
# Mus musculus [31] = experiment: Anticonvulsant activity in Swiss albino mouse assessed as protection against maximal electroshock-induced seizures at 100 mg/kg, ip administered 3 hrs prior to 50 mA current induction relative to control; assay type: functional
# Rattus norvegicus [32] = experiment: Anticonvulsant activity in Wistar rat assessed as protection against maximal electroshock-induced seizures at 30 mg/kg, po administered 0.25 hrs prior to 150 mA current induction relative to control; assay type: functional
compound,measurement,setting,value
Cc1ccc(N2CCN(c3ccc(/C=N/NC(=O)c4ccc(S(N)(=O)=O)cc4)cc3)CC2)c(C)c1,Activity,Mus musculus [1],60%
same,Activity,Mus musculus [2],50%
same,Activity,Mus musculus [3],70%
same,Activity,Mus musculus [4],60%
same,Activity,Rattus norvegicus [5],Non-Toxic
same,Ki,Carbonic anhydrase 7,17.8 nM
same,Activity,Rattus norvegicus [6],4.83 mEq/L
same,Activity,Mus musculus [7],50%
same,Ki,Carbonic anhydrase 9,1660 nM
same,Activity,Rattus norvegicus [8],7.2 million/mm3
same,Activity,Rattus norvegicus [9],67%
same,Activity,Rattus norvegicus [10],60.3 U/L
same,Activity,Mus musculus [11],67%
same,Activity,Rattus norvegicus [12],6.48 mg/dL
same,Activity,Mus musculus [13],50%
same,Activity,Rattus norvegicus [14],Non-Toxic
same,Activity,Rattus norvegicus [15],50%
same,Activity,Mus musculus [16],60%
same,Activity,Mus musculus [17],50%
same,Ratio Ki,Homo sapiens,93
same,Activity,Rattus norvegicus [18],96.5 U/L
same,Activity,Rattus norvegicus [19],67 - 84%
same,Activity,Rattus norvegicus [20],0.35 mg/dL
same,Activity,Rattus norvegicus [21],Non-Toxic
same,Activity,Rattus norvegicus [22],2.6%
same,Activity,Rattus norvegicus [23],12.2 g/dL
same,Activity,Rattus norvegicus [24],65 U/L
same,Activity,Rattus norvegicus [25],23.1%
same,Activity,Rattus norvegicus [26],71.5%
same,Activity,Mus musculus [27],67 - 70%
same,Activity,Rattus norvegicus [28],622.3 ×10³ /mm3
same,Activity,Mus musculus [29],50%
same,Activity,Rattus norvegicus [30],0.33%
same,Activity,Mus musculus [31],50%
same,Activity,Rattus norvegicus [32],17%

# Source: ChEMBL document CHEMBL4270557, “Discovery of potent anti-convulsant carbonic anhydrase inhibitors: Design, synthesis, in vitro and in vivo appraisal” (Eur J Med Chem, 2018)
